Laboratory results published in patent US20190352358A1, “COMPOUNDS, COMPOSITIONS AND USES THEREOF FOR IMPROVEMENT OF BONE DISORDERS” (ALIZE PHARMA III SAS, priority 2017, published 2019).
Residues, ends and D or L forms follow the SMILES beside them. *: point of attachment. Stearoyl = CCCCCCCCCCCCCCCCCC(=O)*

What was measured:
[1] = Pharmacokinetics in male Sprague Dawley rats after intravenous and subcutaneous injection (Example 10); type: in vivo; details: 1 μmol net peptide/kg, rat; for Tlast (last time point with detectable peptide): listed as HBD1 (3-11) with stearic acid at the N-terminus (C18:0)
Method: The peptides were reconstituted in saline (0.9% NaCl). Three male Sprague Dawley rats were used per group. Intravenous doses were administered into a lateral tail vein at the dose of 1 μmol net peptide/kg. Subcutaneous doses were administered into the right flank of each animal, also at the dose of 1 μmol net peptide/kg. Following dosing, serial whole blood samples (ca. 0.25 mL) were collected from a lateral tail vein into K2EDTA treated containers. Following each blood sample collection, samples were placed into a cooling block at 4° C. Samples were collected prior to dosing then at 2, 5, 15 and 30 minutes then 1, 2, 4, 6 and 8 and 24 hours post dose for intravenous injection and at 15 and 30 minutes then 1, 2, 4, 6, 8 and 24 hours post dose for subcutaneous injection.
Blood samples were centrifuged at 10000×g for 2 minutes at 4° C. and resultant plasma aspirated off into clean fully, labelled tubes. Plasma samples were snap frozen following aspiration then stored at −80° C. Peptides were extracted and analyzed as described in Example 9. The limits of quantification of these methods were 0.001 nmol/mL for cyclic HBD1 (3-11) and HBD1 (3-11) and 0.003 nmol/mL for HBD1 (1-13). All values below these limits of quantification were considered as zero.

[2] = Pharmacokinetics of acylated analogs in male Sprague Dawley rats after subcutaneous injection (Example 11); type: in vivo; details: sc, rat
Method: The peptides were reconstituted in saline (0.9% NaCl). Three male Sprague Dawley rats (approximately 6 weeks of age) were used per group. Subcutaneous doses were administered into the right flank of each animal […]. Following dosing, serial whole blood samples (ca. 0.3 mL) were collected from retro-orbital sinus into K2EDTA treated containers. Following each blood sample collection, samples were placed into a cooling block at 4° C. Samples were collected prior to dosing then at 15 and 30 minutes then 1, 2, 4, 6, 8 and 24 hours post dose for subcutaneous injection. Blood samples were centrifuged at 3500×rpm for 10 minutes at 4° C. and resultant plasma aspirated off into clean fully, labelled tubes. Plasma samples were snap frozen following aspiration then stored at −80° C. The peptides were extracted with acetonitrile:water (75:25, v/v) and analyzed using developed LC-MS/MS methods as described in Example 9. The limits of detection of these methods are 0.003 nmol/mL for HBD1 (1-13) with palmitic acid at the N-terminus (C16:0), 0.0008 nmol/mL for HBD1 (3-11) with palmitic acid at the N-terminus (C16:0), 0.0070 nmol/mL for HBD1 (3-11) with stearic acid at the N-terminus (C18:0), and 0.0015 nmol/mL for HBD1 (3-11) with myristic acid at the N-terminus (C14:0), HBD1 (3-11) with arachidic acid at the N-terminus (C20:0), HBD1 (3-11) with palmitic diacid at the N-terminus (C16:0-diacid), HBD1 (3-11) with palmitic acid at the C-terminus (C16:0). All values below these limits of quantification were considered as zero.

[3] = system: ovariectomized (OVX) rats; test: Bone biomechanical tests (lumbar vertebrae compression, femoral neck cantilever bending) in OVX rats; type: in vivo, female Sprague-Dawley rats; details: 3.2 mg/kg BID s.c., 6 weeks
Method: (§1) Effects on bone of three doses of HBD1 (3-11) with stearic acid at the N-terminus (C18:0) analog were tested in vivo in ovariectomized (OVX) rats, a recognized model for human osteoporosis, in particular postmenopausal osteoporosis. Each group included ten female Sprague-Dawley rats that were four months of age at the beginning of the in-life phase of the study. Treatment started six weeks after OVX surgery and lasted for six additional weeks. Groups were randomized before surgery according to body weight and tibial metaphysis Bone Mineral Density (BMD) as measured by peripheral quantitative computed tomography (pQCT) from Norland Stratec XCT Research SA equipment (Norland Stratec Medizintechnik, Birkenfeld, Germany).
(§2) The peptide was reconstituted in saline solution (0.9% NaCl) and administered subcutaneously twice a day at the doses of 0.8 mg/kg (low), 1.6 mg/kg (med) or 3.2 mg/kg (high) in a volume of 1 mL/kg. The control group was administered twice a day with saline by s.c. administration. Rats were weighed once a week and the volume of dosing solution administered was adjusted accordingly.
Bone biomechanical properties were determined by compression test using Instron 3343 biomechanical testing system (Instron, Norwood, Mass., USA). […]

[4] = system: ovariectomized (OVX) rats; test: Bone μCT of proximal tibia in ovariectomized (OVX) rats after 6-week treatment; type: in vivo, female Sprague-Dawley rats; details: 0.8, 1.6 or 3.2 mg/kg s.c. twice a day, 6 weeks; dose-dependent
Method: as §1, §2
High-resolution micro-computed tomography (μCT) measurements using SkyScan 1072 or 1172 High Resolution Scanner (Bruker microCT, Kontich, Belgium) were performed ex vivo in right proximal tibia at the end of the treatment period for measuring bone volume, bone cross-sectional dimensions and bone microarchitecture. FIGS. 5A, 5B and 5C show the percent increase from OVX animals HBD1 (3-11) with stearic acid at the N-terminus (C18:0) groups for following selected parameters: Bone Volume Fraction (BV/TV; %), Trabecular number (Tb.N; mm^−1) and Connectivity Density (Conn.D; mm^−3).

[5] = Pharmacokinetics in Göttingen minipigs after intravenous and subcutaneous injection (Example 12); type: in vivo; details: minipig; for Cmax: read-out: maximum concentrations (Cmax), mean; for AUC(0-t): read-out: mean total exposure (AUC0-t); for Tmax: read-out: times post dose for maximum concentration (Tmax), median
Method: The peptide was reconstituted in saline (0.9% NaCl). Three Göttingen minipigs (approximately 8-10 months of age) were used per group. Intravenous doses were administered into an ear vein at the dose of 0.5 μmol net peptide/kg. Subcutaneous doses were administered into the right flank of each animal, also at the dose of 0.5 μmol net peptide/kg. Following dosing, serial whole blood samples (ca. 0.25 mL) were collected from a jugular vein into K2EDTA treated containers. Following each blood sample collection, samples were placed into a cooling block at 4° C. Samples were collected prior to dosing then at 5 and 30 minutes then 1, 2, 4, 8, 25, 48, 72 and 96 hours post dose for intravenous injection and at 15 and 30 minutes then 1, 2, 4, 8, 25, 48, 72 and 96 hours post dose for subcutaneous injection.
Blood samples were centrifuged at 10000×g for 2 minutes at 4° C. and resultant plasma aspirated off into clean fully, labelled tubes. Plasma samples were snap frozen following aspiration then stored at −80° C. Peptide extraction and analysis were performed as described in Example 9. The limit of quantification of this method is 0.0015 nmol/mL. All values below this limit of quantification are considered as zero.

[6] = male, Sprague Dawley, plasma, iv
[7] = male, Sprague Dawley, plasma, sc
[8] = Göttingen, plasma, 0.5 umol/kg, iv, 0.5 μmol/kg
[9] = Göttingen, plasma, 0.5 umol/kg, sc, 0.5 μmol/kg

Tlast (last time point with detectable peptide) ([1]; iv): 8 h | bioavailability ([1]; male, Sprague Dawley, plasma, subcutaneous, sc vs iv, read-out: F (bioavailability)): 52% | AUC(0-t) [1, 6]: 9.28 µM·h | Cmax [1, 6]: 10.2 µM | Tmax [1, 6]: 0.033 h | AUC(0-t) [1, 7]: 4.81 µM·h | Cmax [1, 7]: 0.54 µM | Tmax [1, 7]: 4 h | Tlast (last time point with detectable peptide) ([1]; sc): 8 h | peptide exposure compared among acylated peptides (in words) [2]: higher peptide exposure | Cmax [5, 8]: 6.27 µM | AUC(0-t) [5, 8]: 3.75 µM·h | Tmax [5, 8]: 0.083 h | Cmax [5, 9]: 0.29 µM | AUC(0-t) [5, 9]: 3.07 µM·h | Tmax [5, 9]: 4 h | bioavailability ([5]; Göttingen, plasma, sc, 0.5 umol/kg, read-out: mean calculated subcutaneous bioavailability relative to i.v.): 83.1% | exposure duration after subcutaneous administration ([5]; sc, 0.5 μmol/kg): up to 25 hours
Compound: CCCCCCCCCCCCCCCCCC(=O)N[C@@H](Cc1c[nH]cn1)C(=O)N[C@@H](CC(C)C)C(=O)NCC(=O)N[C@@H](CC(C)C)C(=O)N[C@@H](CCC(=O)O)C(=O)N[C@@H](CCC(=O)O)C(=O)N1CCC[C@H]1C(=O)N[C@@H](CCCCN)C(=O)N[C@@H](CCCCN)C(=O)O [SEQ ID NO: 73, C18:0-HLGLEEPKK] (Stearoyl-HLGLEEPKK-OH; C-terminus assumed)
biomechanical properties of femoral neck (load at break point) [3]: improved | biomechanical properties of lumbar vertebrae (maximal load, energy absorption at maximal load, stress at maximal load) [3]: improved | Bone Volume Fraction (BV/TV) at tibial metaphysis vs OVX vehicle [4]: increased | Connectivity Density (Conn.D) at tibial metaphysis vs OVX vehicle [4]: increased | Trabecular number (Tb.N) at tibial metaphysis vs OVX vehicle [4]: increased
